Each block holds one compound with its values, some of them ahead of it.
Legend:
[1] = in vitro stability in 10% rat plasma, LC-MS/MS; type: in vitro ADME; settings: room temperature, 100 ng/ml; for % Remaining: 0 h
Method: (§1) Consequently, the stability of select, non-PEGylated analogs was evaluated in vitro in the presence of 10% rat or human plasma. Briefly, samples of each peptide were diluted to 100 ng/ml into PBS containing 10% of rat or human plasma. Each sample was then incubated at room temperature and analyzed by LC-MS/MS to quantitate the intact peptide remaining at select time points over 6 hours.

[2] = rat pharmacokinetic studies; settings: 2 mg/kg
Method: Rat pharmacokinetic studies. […] There were three rats per group (n=3), each weighing 250-325 g. Each group received either a 2 mg/kg intravenous or subcutaneous discrete administration. The approximate dose volume was 0.3 mL per rat. Approximately 0.25 mL of whole blood was taken per time point at the following post-dose collection times for the intravenous groups (in hours): 0.083, 0.25, 0.5, 1, 2, 4, 6, 8, 24, 48, 72, 96 and the following time points for the subcutaneous groups (in hours): 0.25, 0.5, 1, 2, 4, 6, 8, 24, 48, 72, 96. Whole blood samples were collected in microtainer vials containing EDTA as anticoagulant and were kept on wet ice until processed for plasma. The plasma was obtained by centrifuging the whole blood for approximately 5 min at 11,500 rpm. Plasma was transferred to new tubes and stored frozen at approximately −70° C. until quantitative analysis. […] The individual sample concentrations for each time point were averaged (n=3) within a given dose group using Excel 2000 software. The averaged plasma concentration-time data were analyzed by noncompartmental methods using WinNonlin v.3.3 software. Nominal sample times were used in the pharmacokinetic analysis. The area under the concentration-time curve was calculated using the linear/log trapezoidal method to determine exposure.

CGRP1 receptor = target: T1, CGRP1 receptor (Homo sapiens, UniProt O60894+Q16602); experiment: in vitro CGRP1 receptor mediated cAMP assay in SK-N-MC cells; type: cell-based
T1 construct: SK-N-MC cells express CRLR and RAMP1, which form CGRP1 receptor; endogenous in cells; host or cells: SK-N-MC human neuroblastoma cells
How it was run: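 Human SK-N-MC neuroblastoma cells, which endogenously express CRLR/RAMP1, were plated two days before assay and preincubated in plasma-free medium for 15 minutes at room temperature. Cells were then lysed for 30 minutes at 37° C, and cAMP in the lysates was quantified by competitive cAMP-AP chemiluminescent ELISA.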

[3] = in vitro stability in 10% human plasma, LC-MS/MS; type: in vitro ADME; settings: room temperature, 100 ng/ml; for % Remaining: 0 h
Method: as §1

T1 sequence (Q16602 23-461): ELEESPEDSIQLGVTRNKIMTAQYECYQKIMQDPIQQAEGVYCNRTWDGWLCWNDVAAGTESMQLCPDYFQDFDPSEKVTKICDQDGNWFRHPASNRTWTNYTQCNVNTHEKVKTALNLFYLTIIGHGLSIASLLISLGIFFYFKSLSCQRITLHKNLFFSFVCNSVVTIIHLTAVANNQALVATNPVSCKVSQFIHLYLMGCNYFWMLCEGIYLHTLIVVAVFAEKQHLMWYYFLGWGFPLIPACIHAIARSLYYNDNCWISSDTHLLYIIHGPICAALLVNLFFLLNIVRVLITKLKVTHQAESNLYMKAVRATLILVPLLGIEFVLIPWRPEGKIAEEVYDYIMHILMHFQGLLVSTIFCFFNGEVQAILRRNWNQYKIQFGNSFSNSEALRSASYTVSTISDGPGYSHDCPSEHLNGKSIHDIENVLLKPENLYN
T1 sequence (O60894 27-148): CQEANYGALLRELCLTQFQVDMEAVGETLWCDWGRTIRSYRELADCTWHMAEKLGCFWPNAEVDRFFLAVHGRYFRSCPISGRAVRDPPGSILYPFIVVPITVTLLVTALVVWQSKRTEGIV

Compound: SEQ ID NO:32 (WVTHXLAGLLSXSGGVVRKNFVPTDVGPFAF; CGRP peptide; MOD_RES (1)..(1): …ON; MISC_FEATURE (5)..(5): xaa=citrulline; MISC_FEATURE (12)..(12): xaa=citrulline; MISC_FEATURE (19)..(19): PEGylated; MOD_RES (31)..(31): AMIDATION)
- mean residence time (MRT) longer compared to SEQ ID NO:15 ([2]; intravenous): 4 times
- bioavailablity (F %) ([2]; subcutaneous): 47%
- exposure (AUC) increase compared to SEQ ID NO:15 ([2]; subcutaneous): about 15 fold
- antagonist activity in cAMP assay, in words (CGRP1 receptor): relatively minor loss of in vitro antagonist activity

Compound: CC(=O)N[C@@H](Cc1c[nH]c2ccccc12)C(=O)N[C@H](C(=O)N[C@H](C(=O)N[C@@H](Cc1cnc[nH]1)C(=O)N[C@@H](CCCCNC(=N)N)C(=O)N[C@@H](CC(C)C)C(=O)N[C@@H](C)C(=O)NCC(=O)N[C@@H](CC(C)C)C(=O)N[C@@H](CC(C)C)C(=O)N[C@@H](CO)C(=O)N[C@@H](CCCCNC(=N)N)C(=O)N[C@@H](CO)C(=O)NCC(=O)NCC(=O)N[C@H](C(=O)N[C@H](C(=O)N[C@@H](CCCNC(=N)N)C(=O)N[C@@H](CCCCN)C(=O)N[C@@H](CC(N)=O)C(=O)N[C@@H](Cc1ccccc1)C(=O)N[C@H](C(=O)N1CCC[C@H]1C(=O)N[C@H](C(=O)N[C@@H](CC(=O)O)C(=O)N[C@H](C(=O)NCC(=O)N1CCC[C@H]1C(=O)N[C@@H](Cc1ccccc1)C(=O)N[C@@H](C)C(=O)N[C@@H](Cc1ccccc1)C(N)=O)C(C)C)[C@@H](C)O)C(C)C)C(C)C)C(C)C)[C@@H](C)O)C(C)C [SEQ ID NO: 25]
- % Remaining [3]: 100.0%
- remaining at 0.17 h, 100 ng/ml [3]: 88.3%
- remaining at 0.5 h, 100 ng/ml [3]: 47.3%
- remaining at 1 h, 100 ng/ml [3]: 28.7%
- remaining at 2 h, 100 ng/ml [3]: 11%
- remaining at 3 h, 100 ng/ml [3]: 5.4%
- remaining at 4 h, 100 ng/ml [3]: 3.1%
- remaining at 5 h, 100 ng/ml [3]: 3.6%
- remaining at 6 h, 100 ng/ml [3]: 2.8%

Compound: SEQ ID NO: 26: PEGylated double homoarginine analog (WVTHXLAGLLSXSGGVVRKNFVPTDVGPFAF; PEGylated; homoarginine residues; CGRP peptide; MOD_RES (1)..(1): …ON; MISC_FEATURE (5)..(5): xaa=homoarginine; MISC_FEATURE (12)..(12): xaa=homoarginine; MISC_FEATURE (19)..(19): PEGylated; MOD_RES (31)..(31): AMIDATION)
- AUC0-inf ([2]; rat, IV, mean, n = 3): 24555 ng·h/mL
- AUC0-t ([2]; rat, IV, mean, n = 3): 24546 ng·h/mL
- CL ([2]; rat, IV, mean, n = 3): 1.35 mL/min/kg
- MRT ([2]; rat, IV, mean, n = 3): 1.01 h
- Vss ([2]; rat, IV, mean, n = 3): 0.083 L/kg
- t1/2 ([2]; rat, IV, mean, n = 3): 7.39 h
- AUC0-inf ([2]; rat, SC, mean, n = 3): 1204 ng·h/mL
- AUC0-t ([2]; rat, SC, mean, n = 3): 1188 ng·h/mL
- CL/F ([2]; rat, SC, mean, n = 3): 27.67 mL/min/kg
- Cmax ([2]; rat, SC, mean, n = 3): 143 ng/mL
- Tmax ([2]; rat, SC, mean, n = 3): 2.00 h
- t1/2 ([2]; rat, SC, mean, n = 3): 26.17 h

Now from value to compound:

- % Remaining [1]: 100.0%
- remaining at 0.5 h, 100 ng/ml [1]: 83.8%
- remaining at 1 h, 100 ng/ml [1]: 66.2%
- remaining at 2 h, 100 ng/ml [1]: 29.9%
- remaining at 3 h, 100 ng/ml [1]: 20.4%
- remaining at 4 h, 100 ng/ml [1]: 11.8%
- remaining at 5 h, 100 ng/ml [1]: 6.4%
- remaining at 6 h, 100 ng/ml [1]: 4%
Compound: Ac-WVTHQLAGLLSQSGGVVRKNFVPTDVGPFAF-NH2 [compound 39]

- % Remaining [3]: 100.0%
- remaining at 0.17 h, 100 ng/ml [3]: 74.2%
- remaining at 0.5 h, 100 ng/ml [3]: 54%
- remaining at 1 h, 100 ng/ml [3]: 50.2%
- remaining at 2 h, 100 ng/ml [3]: 36.7%
- remaining at 3 h, 100 ng/ml [3]: 15.8%
- remaining at 4 h, 100 ng/ml [3]: 11.3%
- remaining at 5 h, 100 ng/ml [3]: 6.3%
- remaining at 6 h, 100 ng/ml [3]: 5.2%
Compound: Ac-WVTHQLAGLLSQSGGVVRKNFVPTDVGPFAF-NH2 [SEQ ID NO: 39]

- % Remaining [1]: 100.0%
- remaining at 0.5 h, 100 ng/ml [1]: 62.7%
- remaining at 1 h, 100 ng/ml [1]: 39.5%
- remaining at 2 h, 100 ng/ml [1]: 10.5%
- remaining at 3 h, 100 ng/ml [1]: 4.7%
- remaining at 4 h, 100 ng/ml [1]: 2.5%
- remaining at 5 h, 100 ng/ml [1]: 1.3%
- remaining at 6 h, 100 ng/ml [1]: 0.7%
Compound: Ac-WVTHRLAGLLSQSGGVVRKNFVPTDVGPFAF-NH2 [compound 37]

- % Remaining [3]: 100.0%
- remaining at 0.17 h, 100 ng/ml [3]: 59%
- remaining at 0.5 h, 100 ng/ml [3]: 20.6%
- remaining at 1 h, 100 ng/ml [3]: 10%
- remaining at 2 h, 100 ng/ml [3]: 2.3%
- remaining at 3 h, 100 ng/ml [3]: 1.3%
- remaining at 4 h, 100 ng/ml [3]: 0.7%
- remaining at 5 h, 100 ng/ml [3]: 0.7%
- remaining at 6 h, 100 ng/ml [3]: 0%
Compound: Ac-WVTHRLAGLLSQSGGVVRKNFVPTDVGPFAF-NH2 [SEQ ID NO: 37]

Reference: patent US8168592B2 (Amgen Inc., priority 2005, dated 2012)
